The record followed here is patent US12215093B2, “Bicyclic carboxamides and methods of use thereof” (Tempest Therapeutics, Inc., priority 2018, dated 2025).

In assay [1] the target is T1, EP2 (Homo sapiens, UniProt P43116). Nature of the assay: cell-based.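 Note: functional calcium flux assay in stably transfected HEK293 cells expressing EP2 coupled via a promiscuous G protein, clytin luminescence read as area under the curve, 30 min compound preincubation.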
For assay [2], the target named is T2, EP4 (Homo sapiens, UniProt P35408).
T2 construct: host or cells: stably transfected HEK293 cells co-expressing a promiscuous G protein and a clytin variant
T2 sequence (P35408 whole entry): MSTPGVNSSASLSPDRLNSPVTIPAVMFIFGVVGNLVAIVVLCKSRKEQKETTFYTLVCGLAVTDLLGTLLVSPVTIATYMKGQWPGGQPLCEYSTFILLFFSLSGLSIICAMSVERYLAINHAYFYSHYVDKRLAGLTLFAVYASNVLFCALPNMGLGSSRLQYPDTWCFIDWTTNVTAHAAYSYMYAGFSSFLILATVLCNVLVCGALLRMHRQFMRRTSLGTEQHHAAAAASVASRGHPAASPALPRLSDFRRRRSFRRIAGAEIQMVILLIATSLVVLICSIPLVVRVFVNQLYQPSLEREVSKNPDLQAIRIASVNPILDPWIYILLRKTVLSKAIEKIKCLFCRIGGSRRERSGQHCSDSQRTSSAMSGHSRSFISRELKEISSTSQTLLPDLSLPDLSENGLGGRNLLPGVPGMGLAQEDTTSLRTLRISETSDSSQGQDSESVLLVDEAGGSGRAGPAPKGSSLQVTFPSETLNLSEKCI
Nature of the assay: Functional calcium flux assay, EP4. The assay is classed as cell-based. Particulars: stably transfected HEK293 cells; PGE2 10 nM; read-out: EP4 Ca2+-flux assay IC50.

Assay [3] deals with T1, EP2.

Like-named read-outs stand apart in the source and are kept apart here.

T1 sequence (P43116 whole entry): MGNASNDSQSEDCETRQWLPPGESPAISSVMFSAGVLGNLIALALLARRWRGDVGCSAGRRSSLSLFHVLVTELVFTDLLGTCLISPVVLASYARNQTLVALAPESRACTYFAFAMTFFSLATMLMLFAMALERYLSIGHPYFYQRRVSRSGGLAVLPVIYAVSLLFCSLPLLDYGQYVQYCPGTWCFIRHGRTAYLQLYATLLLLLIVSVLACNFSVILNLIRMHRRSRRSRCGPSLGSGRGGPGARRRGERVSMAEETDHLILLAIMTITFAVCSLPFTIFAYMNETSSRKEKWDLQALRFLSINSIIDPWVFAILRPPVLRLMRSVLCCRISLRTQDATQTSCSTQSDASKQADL

As for `O=C(NC1CC2(C1)CC(C(=O)O)C2)c1ccc(F)c2ccn(Cc3ccc(OC(F)(F)F)cc3)c12` (racemic) [Example 1, (racemic)-6-(4-Fluoro-1-(4-(trifluoromethoxy)benzyl)-1H-indole-7-carboxamido)spiro[3.3]heptane-2-carboxylic acid], the IC50 in assay [1] is 34 nM; in assay [2] it was less than 1 nM.

For `O=C(NC1CC2(C1)CC(C(=O)O)C2)c1ccc(F)c2ccn(Cc3ccc4cc(F)ccc4c3)c12` (racemic) [Example 5, (racemic)-6-(4-fluoro-1-((6-fluoronaphthalen-2-yl)methyl)-1H-indole-7-carboxamido)spiro[3.3]heptane-2-carboxylic acid], the IC50 in assay [1] was less than 25 nM; in assay [2], less than 1 nM.

As for `CC(C)(C)c1ccc(Cn2ccc3c(Cl)ccc(C(=O)NC4CC5(C4)CC(C(=O)O)C5)c32)cc1` (racemic) [Example 7, (racemic)-6-(1-(4-(tert-Butyl)benzyl)-4-chloro-1H-indole-7-carboxamido)spiro[3.3]heptane-2-carboxylic acid], the IC50 in assay [1] is less than 25 nM; in assay [2], less than 1 nM.

Consider `O=C(NC1CC2(C1)CC(C(=O)O)C2)c1ccc(F)c2ccn(Cc3ccc(-c4ccccc4)c(F)c3)c12` (racemic) [Example 10, (racemic)-6-(4-Fluoro-1-((2-fluoro-[1,1′-biphenyl]-4-yl)methyl)-1H-indole-7-carboxamido)spiro[3.3]heptane-2-carboxylic acid], for which the IC50 in assay [1] was less than 25 nM; in assay [2], less than 1 nM.

Regarding `COc1ccc(-c2ccc(Cn3ccc4c(F)ccc(C(=O)NC5CC6(C5)CC(C(=O)O)C6)c43)cc2)cc1` (racemic) [Example 12, (racemic)-6-(4-fluoro-1-((4′-methoxy-[1,1′-biphenyl]-4-yl)methyl)-1H-indole-7-carboxamido)spiro[3.3]heptane-2-carboxylic acid], the values for the IC50 in assay [1] and in assay [2] were less than 25 nM and less than 1 nM, respectively.

For `N#Cc1ccc(-c2ccc(Cn3ccc4c(F)ccc(C(=O)NC5CC6(C5)CC(C(=O)O)C6)c43)cc2)cc1` (racemic) [Example 13, (racemic)-6-(1-((4′-cyano-[1,1′-biphenyl]-4-yl)methyl)-4-fluoro-1H-indole-7-carboxamido)spiro[3.3]heptane-2-carboxylic acid], the IC50 in assay [1] was 39 nM; in assay [2], less than 1 nM.

Regarding `COc1cccc(-c2ccc(Cn3ccc4c(F)ccc(C(=O)NC5CC6(C5)CC(C(=O)O)C6)c43)cc2)c1` (racemic) [Example 14, (racemic)-6-(4-fluoro-1-((3′-methoxy-[1,1′-biphenyl]-4-yl)methyl)-1H-indole-7-carboxamido)spiro[3.3]heptane-2-carboxylic acid], the results for the IC50 in assay [1] and in assay [2] were less than 25 nM and less than 1 nM, respectively.

With `N#Cc1cccc(-c2ccc(Cn3ccc4c(F)ccc(C(=O)NC5CC6(C5)CC(C(=O)O)C6)c43)cc2)c1` (racemic) [Example 15, (racemic)-6-(1-((3′-cyano-[1,1′-biphenyl]-4-yl)methyl)-4-fluoro-1H-indole-7-carboxamido)spiro[3.3]heptane-2-carboxylic acid], the IC50 is less than 25 nM in assay [1] and less than 1 nM in assay [2].

For the compound `COc1ccc(-c2ccc(Cn3ccc4c(F)ccc(C(=O)NC5CC6(C5)CC(C(=O)O)C6)c43)cc2)cc1F` (racemic) [Example 16, (racemic)-6-(4-fluoro-1-((3′-fluoro-4′-methoxy-[1,1′-biphenyl]-4-yl)methyl)-1H-indole-7-carboxamido)spiro[3.3]heptane-2-carboxylic acid], the values for the IC50 in assay [1] and in assay [2] were less than 25 nM and less than 1 nM, respectively.

Turning to `COc1ncc(-c2ccc(Cn3ccc4c(F)ccc(C(=O)NC5CC6(C5)CC(C(=O)O)C6)c43)cc2)cc1Cl` (racemic) [Example 17, (racemic)-6-(1-(4-(5-Chloro-6-methoxypyridin-3-yl)benzyl)-4-fluoro-1H-indole-7-carboxamido)spiro[3.3]heptane-2-carboxylic acid], the IC50 in assay [1] is less than 25 nM; in assay [2] it was 7 nM.

`COc1ccccc1-c1ccc(Cn2ccc3c(F)ccc(C(=O)NC4CC5(C4)CC(C(=O)O)C5)c32)cc1` (racemic) [Example 18, (racemic)-6-(4-fluoro-1-((2′-methoxy-[1,1′-biphenyl]-4-yl)methyl)-1H-indole-7-carboxamido)spiro[3.3]heptane-2-carboxylic acid]: the IC50 is 34 nM in assay [1] and less than 1 nM in assay [2].

As for `COc1cc(-c2ccc(Cn3ccc4c(F)ccc(C(=O)NC5CC6(C5)CC(C(=O)O)C6)c43)cc2)ccc1F` (racemic) [Example 19, (racemic)-6-(4-fluoro-1-((4′-fluoro-3′-methoxy-[1,1′-biphenyl]-4-yl)methyl)-1H-indole-7-carboxamido)spiro[3.3]heptane-2-carboxylic acid], the IC50 in assay [1] is less than 25 nM; in assay [2] it was less than 1 nM.

`O=C(O)CC1CC2(C1)CC(NC(=O)c1cc(Cl)cc3cnn(Cc4ccc(-c5ccccc5)c(F)c4)c13)C2` (stereo not shown) [Example 151, (Ra)-2-(6-(5-Chloro-1-((2-fluoro-[1,1′-biphenyl]-4-yl)methyl)-1H-indazole-7-carboxamido)spiro[3.3]heptan-2-yl)acetic acid]: the IC50 in assay [3] is less than 25 nM; in assay [2], less than 1 nM.

On to `O=C(O)CC1CC2(C1)CC(NC(=O)c1cc(Cl)cc3cnn(Cc4ccc(-c5ccccc5)c(F)c4)c13)C2` (stereo not shown) [Example 152, (Sa)-2-(6-(5-Chloro-1-((2-fluoro-[1,1′-biphenyl]-4-yl)methyl)-1H-indazole-7-carboxamido)spiro[3.3]heptan-2-yl)acetic acid], for which the IC50 in assay [3] is 49 nM; in assay [2] it was less than 1 nM.

For `O=C(NC1CC2(C1)CC(C(=O)O)C2)c1cc(Cl)cc2cnn(Cc3ccc(-c4ccccc4)c(F)c3)c12` (stereo not shown) [Example 153, (Sa)-6-(5-Chloro-1-((2fluoro-[1,1′-biphenyl]-4-yl)methyl)-1H-indazole-7-carboxamido)spiro[3.3]heptane-2-carboxylic acid], the values for the IC50 in assay [3] and in assay [2] were 95 nM and less than 1 nM, respectively.

As for `COc1cc(-c2ccc(Cn3ncc4cc(Cl)cc(C(=O)NC5CC6(C5)CC(C(=O)O)C6)c43)cc2F)ccn1` (stereo not shown) [Example 154, (Sa)-6-(5-Chloro-1-(3-fluoro-4-(2-methoxypyridin-4-yl)benzyl)-1H-indazole-7-carboxamido)spiro[3.3]heptane-2-carboxylic acid], the IC50 is less than 25 nM in assay [3] and 2.8 nM in assay [2].

With `COc1cc(-c2ccc(Cn3ncc4cc(Cl)cc(C(=O)NC5CC6(C5)CC(C(=O)O)C6)c43)c(F)c2)ccn1` (stereo not shown) [Example 156, (Sa)-6-(5-Chloro-1-(2-fluoro-4-(2-methoxypyridin-4-yl)benzyl)-1H-indazole-7-carboxamido)spiro[3.3]heptane-2-carboxylic acid], the figures for the IC50 in assay [3] and in assay [2] were less than 25 nM and less than 1 nM, respectively.

As for `COc1cc(C(=O)NC2CC3(C2)CC(C(=O)O)C3)c2c(cnn2Cc2ccc(-c3ccccc3)cc2)c1` (stereo not shown) [Example 159, (Sa)-6-(1-([1,1′-Biphenyl]-4-ylmethyl)-5-methoxy-1H-indazole-7-carboxamido)spiro[3.3]heptane-2-carboxylic acid], the IC50 in assay [3] was 65 nM; in assay [2], less than 1 nM.

On to `COc1ccc(C(=O)NC2CC3(CC(CC(=O)O)C3)C2)c2c1cnn2Cc1ccc(-c2ccccc2)cc1` (stereo not shown) [Example 161, (Ra)-2-(6-(1-([1,1′-Biphenyl]-4-ylmethyl)-4-methoxy-1H-indazole-7-carboxamido)spiro[3.3]heptan-2-yl)acetic acid], for which the results for the IC50 in assay [3] and in assay [2] were 63 nM and less than 1 nM, respectively.

With `O=C(O)CC1CC2(C1)CC(NC(=O)c1ccc(OC(F)F)c3cnn(Cc4ccc(-c5ccccc5)cc4)c13)C2` (stereo not shown) [Example 162, (Ra)-2-(6-(1-([1,1′-Biphenyl]-4-ylmethyl)-4-(difluoromethoxy)-1H-indazole-7-carboxamido)spiro[3.3]heptan-2-yl)acetic acid], the results for the IC50 in assay [3] and in assay [2] were 52 nM and 1.2 nM, respectively.

In the case of `O=C(NC1CC2(C1)CC(C(=O)O)C2)c1cc(OC(F)F)cc2cnn(Cc3ccc(-c4ccccc4)cc3)c12` (stereo not shown) [Example 163], the IC50 in assay [3] was 30 nM; in assay [2], less than 1 nM.

`COc1cc(C(=O)NC2CC3(CC(CC(=O)O)C3)C2)c2c(cnn2Cc2ccc(-c3ccccc3)cc2)c1` (stereo not shown) [Example 164, (Ra)-2-(6-(1-([1,1′-Biphenyl]-4-ylmethyl)-5-methoxy-1H-indazole-7-carboxamido)spiro[3.3]heptan-2-yl)acetic acid]: the results for the IC50 in assay [3] and in assay [2] were less than 25 nM and less than 1 nM, respectively.

`O=C(O)CC1CC2(C1)CC(NC(=O)c1cc(OC(F)F)cc3cnn(Cc4ccc(-c5ccccc5)cc4)c13)C2` (stereo not shown) [Example 165, (Ra)-2-(6-(1-([1,1′-Biphenyl]-4-ylmethyl)-5-(difluoromethoxy)-1H-indazole-7-carboxamido)spiro[3.3]heptan-2-yl)acetic acid]: the results for the IC50 in assay [3] and in assay [2] were less than 25 nM and 1 nM, respectively.

Take `O=C(O)CC1CC2(C1)CC(NC(=O)c1cc(Cl)c(F)c3cnn(Cc4ccc(-c5ccccc5)cc4)c13)C2` (stereo not shown) [Example 170, (Ra)-2-(6-(1-([1,1′-Biphenyl]-4-ylmethyl)-5-chloro-4-fluoro-1H-indazole-7-carboxamido)spiro[3.3]heptan-2-yl)acetic acid]: the results for the IC50 in assay [3] and in assay [2] were less than 25 nM and 5.1 nM, respectively.

For the compound `COc1c(Cl)cc(C(=O)NC2CC3(CC(CC(=O)O)C3)C2)c2c1cnn2Cc1ccc(-c2ccccc2)cc1` (stereo not shown) [Example 171, (Ra)-2-(6-(1-([1,1′-Biphenyl]-4-ylmethyl)-5-chloro-4-methoxy-1H-indazole-7-carboxamido)spiro[3.3]heptan-2-yl)acetic acid], the IC50 in assay [3] was less than 25 nM; in assay [2] it was 1.4 nM.

Turning to `COc1ccc2cc(Cn3ncc4c(Cl)ccc(C(=O)N[C@H]5CC6(C5)C[C@H](C(=O)O)C6)c43)ccc2n1` (stereo partly shown) [Example 175, (Sa)-6-(4-Chloro-1-((2-methoxyquinolin-6-yl)methyl)-1H-indazole-7-carboxamido)spiro[3.3]heptane-2-carboxylic acid], the values for the IC50 in assay [3] and in assay [2] were less than 25 nM and 5.6 nM, respectively.
